We go through 1 compound from PMC13427755 (Nature Communications, 2026).

The conditions of data set [1]: protocol, section 1.1.1.1; cited from earlier work. The text has this:
[…]. "Antifibrotic therapy for idiopathic pulmonary fibrosis: time to treat." Respiratory research 20.1 (2019) ...

The subject of the next data set is dog. Conditions: 28-day GLP study, delivered doses 8.9, 27.1 and 46.1 mg/kg/day, ref Investigator Brochure (IB); cited from earlier work. As for the experimental part:
(§1) Pivotal 28-day Good Laboratory Practice (GLP) toxicity studies were performed in rats and dogs. These studies were designed such that the high dose levels would achieve at least a 50-fold margin over the proposed high clinical dose as recommended in International Council for Harmonisation (ICH)-M3(R2) guidelines.

Another data set relates to Sprague Dawley rats. Conditions: 28-day GLP inhalation study, delivered doses 18.4, 58.5 and 109.3 mg/kg/day, ref Investigator Brochure (IB); cited from earlier work. As to the method:
as §1

The test system of another data set is galectin-7 (GAL-7). As to the kind of experiment: GAL7 ELISA in deep bronchial brushings (DBB). In kind it is in vivo, human. Conditions: for GAL7 in DBB, Δ from baseline, median (IQR): Day 14 minus screening. The text has this: (§2) Bronchoscopists were instructed to obtain a total of 6 brushings from 3 of the basilar bronchial segments of the right lower lobe: the anterior basilar segment, the lateral basilar segment, and the posterior basilar segment. With the bronchoscope proximal to or within the orifice of the appropriate basilar segment, the brush sheath was to be passed out 5 cm beyond the subsegment orifice, and then the brush was fully extended an additional 1 cm for a total of 6 cm beyond the orifice of the subsegmental bronchus. At the desired depth, the sheath was to be gently pulled back and forward for 15 strokes to brush the small airways. The brushing process was repeated using any combination of the 3 basilar segments described above, at the discretion of the bronchoscopist, for a total of 6 six separate brush samples.
(§3) Protein isolation and preparation of DBB samples for ELISAs were performed as previously described[47] according to manufacturer’s instructions for COL1A1 (#ab210966, abcam), CXCL7 (#LS-F4967-1, LS Bio), GAL7 (#DY1339, R&D Systems), IL-11 (#DY218, R&D Systems), and TSLP (#DY1398, R&D Systems).
(§4) Descriptive statistics are reported as medians with interquartile ranges (IQR). The Hodges-Lehmann estimator was used for the median difference between groups (treatment minus placebo), with approximate 90% confidence intervals (asymmetric, exact level varied slightly with small n). Cliff’s delta was calculated as effect size using the formula δ = (2U / (n1 × n2)) − 1, with thresholds: |δ | <0.3 small effect, 0.3–0.5 medium effect, >0.5 large effect. […] No adjustment for multiplicity was performed, as these were pre-specified, hypothesis-driven exploratory analyses. All biomarker statistical analyses were conducted using GraphPad Prism Version v10.0.

In the next data set the test system is Healthy Adult Subjects. The following applies: cited from earlier work. As for the experimental part:
Pivotal 28-day Good Laboratory Practice (GLP) toxicity studies were performed in rats and dogs. These studies were designed such that the high dose levels would achieve at least a 50-fold margin over the proposed high clinical dose as recommended in International Council for Harmonisation (ICH)-M3(R2) guidelines. […] These events were considered to be dose limiting and related to LTI-03. There was no evidence that the TEAEs in the 3 subjects described previously were secondary to an allergic response. In the 20 mg QD MAD cohorts there were mild decreases in FEV1 in two subjects that were not associated with TEAEs. These were not considered to be dose limiting. There were no serious adverse events (SAEs). All TEAEs were resolved 7 days after the treatment period. Further details can be ...

A further data set relates to interleukin 11 (IL-11). As to the kind of experiment: IL-11 ELISA in deep bronchial brushings (DBB). Conditions: for IL-11 in DBB, Δ from baseline, median (IQR): Day 14 minus screening. In kind it is in vivo, human.
From the text: as §2, §3, §4
For orientation: ELISA stands for enzyme-linked immunosorbent assay.

Data set [2] has as its system phosphorylated (p) AKT over total AKT. In words: AKT/pAKT in PBMCs, MSD-ECL assay. In kind it is in vivo, human. As for the experimental part:
Blood samples for biomarker assessments in PBMCs and platelet-rich plasma were collected prior to the initial dose and on day 14 following the last dose. Following optimization for detection of analytes in IPF matrices, meso-scale discovery electrochemiluminescence (MSD-ECL) assays were performed at BioAgylitix for SP-D (#K1519XR-2, MSD) in plasma and AKT/pAKT (#K15100D-1, MSD) in PBMCs according to manufacturer’s instructions.
as §4

In data set [3] the test system is thymic stromal lymphopoietin (TSLP). As to the kind of experiment: TSLP ELISA in deep bronchial brushings (DBB). It counts as in vivo, human. The following applies: for TSLP in DBB, Δ from baseline, median (IQR): Day 14 minus screening.
From the text: as §2, §3, §4

Where a SMILES comes first, the peptide text is derived from it.

In the case of `CC(C)[C@H](NC(=O)[C@@H](NC(=O)[C@H](Cc1ccccc1)NC(=O)[C@@H](NC(=O)[C@@H](NC(=O)[C@@H](N)Cc1ccccc1)[C@@H](C)O)[C@@H](C)O)[C@@H](C)O)C(=O)N[C@H](C(=O)O)[C@@H](C)O` [LTI-03] (H-FTTFTVT-OH; N-terminus and C-terminus assumed), the solubility in water entry in data set [1] is recorded as “limited solubility”. The “no observed adverse effect level (NOAEL), achieved delivered dose” value in the data set on dog is given as 46.1 mg/kg/day; in the data set on Sprague Dawley rats, 109.3 mg/kg/day. The “GAL7 in DBB, Δ from baseline, median (IQR)” value in the data set on galectin-7 (GAL-7) (5 mg/day, N = 8) is recorded as 250.8575 pg/mg protein; with galectin-7 (GAL-7) (10 mg/day, N = 9) it was −726.395 pg/mg protein. The “GAL7 in DBB, median difference vs placebo (Hodges-Lehmann)” value in the data set with galectin-7 (GAL-7) (5 mg/day, N = 8 vs pooled placebo N = 6, one-tailed Mann-Whitney p = 0.0709) is on record as −4730 pg/mg protein; with galectin-7 (GAL-7) (10 mg/day, N = 9 vs pooled placebo N = 6, one-tailed Mann-Whitney p = 0.0332), −6048 pg/mg protein. In addition, in the data set with Healthy Adult Subjects (healthy adults, 2.5 mg QD, 5 mg QD, 5 mg BID inhaled for up to 14 days, ref study LTI-03-1001), the “tolerability, 3 lower dose MAD cohorts” value was “well tolerated”. In addition, in the data set with Healthy Adult Subjects (in vivo), the “TEAEs secondary to pulmonary airflow limitation, 40 mg QD MAD cohort” value was “dose limiting”. The “IL-11 in DBB, Δ from baseline, median (IQR)” value with interleukin 11 (IL-11) (5 mg/day, N = 8) is −11.037 pg/mg protein; in the data set with interleukin 11 (IL-11) (10 mg/day, N = 9) it was −6.528 pg/mg protein. In addition, the “IL-11 in DBB, median difference vs placebo (Hodges-Lehmann)” value in the data set on interleukin 11 (IL-11) (5 mg/day, N = 8 vs pooled placebo N = 6, one-tailed Mann-Whitney p = 0.0406) is −21.71 pg/mg protein; in the data set on interleukin 11 (IL-11) (10 mg/day, N = 9 vs pooled placebo N = 6, one-tailed Mann-Whitney p = 0.044), −19.15 pg/mg protein. Besides, the figures for the “%p-AKT in PBMCs, Cliff's delta vs placebo” value in data set [2] (5 mg/day) and in data set [2] (10 mg/day) were −0.33 and −0.13, respectively. Moreover, the “phosphorylated (p) AKT over total AKT levels in PBMCs” value in data set [2] (5 and 10 mg/day vs placebo, 14 days) was “did not change”. For the same compound, the “TSLP in DBB, Δ from baseline, median (IQR)” value in data set [3] (5 mg/day, N = 7) is given as −2.106 pg/mg protein; in data set [3] (10 mg/day, N = 9), −2.09 pg/mg protein. The “TSLP in DBB, median difference vs placebo (Hodges-Lehmann)” value in data set [3] (5 mg/day, N = 7 vs pooled placebo N = 6, one-tailed Mann-Whitney p = 0.0256) is given as −19.66 pg/mg protein; in data set [3] (10 mg/day, N = 9 vs pooled placebo N = 6, one-tailed Mann-Whitney p = 0.0128), −19.07 pg/mg protein.
